Results: patent US10167270B2, “Substituted quinazoline compounds and uses thereof for modulating glucocerebrosidase activity” (Northwestern University, priority 2015, dated 2019)
Like-named read-outs stand apart in the source and are kept apart here.

Target: Glucocerebrosidase (Homo sapiens (Human), UniProt P04062)
Assay: Glucocerebrosidase activity assay with blue substrate (4MU-Glc)
Assay type: biochemical
Settings: for Activity AC50 or IC50: direction not given
Protocol: The compounds in DMSO solution 0.5 μL/well were transferred to a black 96-well plate. The final titration was 24 nM to 50 μM, 12 concentrations, 2 times dilution. […] After 5 min of incubation at room temperature, the enzyme reaction was initiated by the addition of 33 μL/well blue substrate. Final concentrations of the blue substrate (4MU-Glc) was 1.5 mM. The blue substrate reaction was terminated by the addition of 33 μL/well stop solution (1 M NaOH and 1 M glycine mixture, pH 10) after 30 min of incubation at 37° C. The fluorescence was then measured in the Biotek Synergy H1 multi-mode plate reader with Ex=365 nm and Em=440 nm.
Additional compounds were prepared and tested according to the procedures provided in the examples above.
Additional substituted quinazoline compounds were prepared and tested according to the procedures provided in the examples above.

[1] = marked (inh), inhibitor, read-out: IC50 or AC50 (inh)
[2] = marked activator, AC50, read-out: Activity AC50 or IC50 (activator)
[3] = marked inhibitor, read-out: Activity AC50 or IC50 (inhibitor)
[4] = marked (act), activator, AC50, read-out: IC50 or AC50 (act)
[5] = marked inhibitor, nM indicated, read-out: Activity AC50 or IC50 (inhibitor)

Glucocerebrosidase, sequence (P04062 40-536): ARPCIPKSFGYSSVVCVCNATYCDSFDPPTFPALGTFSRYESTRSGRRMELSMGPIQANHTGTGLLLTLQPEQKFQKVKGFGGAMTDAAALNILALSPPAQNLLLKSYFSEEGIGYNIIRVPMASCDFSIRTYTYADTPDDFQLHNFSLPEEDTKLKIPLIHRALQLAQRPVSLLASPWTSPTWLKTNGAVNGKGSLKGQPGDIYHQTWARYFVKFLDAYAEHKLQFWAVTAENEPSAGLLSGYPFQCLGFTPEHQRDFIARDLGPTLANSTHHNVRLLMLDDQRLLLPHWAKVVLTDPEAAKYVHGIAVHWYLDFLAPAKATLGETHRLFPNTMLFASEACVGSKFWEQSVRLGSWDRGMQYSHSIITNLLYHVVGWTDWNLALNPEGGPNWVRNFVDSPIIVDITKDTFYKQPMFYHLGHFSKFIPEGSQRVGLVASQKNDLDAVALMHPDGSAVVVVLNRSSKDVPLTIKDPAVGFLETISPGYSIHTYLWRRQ

CN(CCOc1ccccc1)c1nc(-c2ccccn2)nc2ccccc12 [compound 143]
Activity AC50 or IC50 (activator) (marked activator, AC50): Weak activator

[N-]=[N+]=Nc1c(F)c(F)c(CNc2nc(-c3cccnc3)nc3ccccc23)c(F)c1F [compound 37]
IC50 or AC50 (act) (marked (act), activator, AC50): Weak (act)

Ic1ccc2c(c1)CC(Nc1nc(-c3cccnc3)nc3ccccc13)C2 (stereo not drawn) [compound 89]
IC50 [1]: 168 nM

CN(CCCc1ccccc1)c1nc(-c2cccnc2)nc2ccccc12 [compound 119]
AC50 [2]: 5.01 µM

FC1(F)CCC(Nc2nc(-c3cccnc3)nc3ccccc23)CC1 [compound 65]
IC50 [1]: 316 nM

Cc1ccc(CCNc2nc(-c3cccnc3)nc3ccccc23)cc1 [compound 73]
IC50 [1]: 1780 nM

c1cncc(-c2nc(NC3CCC3)c3ccccc3n2)c1 [compound 43]
IC50 [1]: 4470 nM

Brc1ccc2c(c1)CC(Nc1nc(-c3cccnc3)nc3ccccc13)C2 (stereo not drawn) [compound 100]
IC50 [3]: 178 nM

O=C(C1COc2ccccc2O1)N1CCN(c2nc(-c3cccnc3)nc3ccccc23)CC1 (stereo not drawn) [compound 29]
IC50 [1]: 2240 nM

CN(c1nc(-c2cccnc2)nc2ccccc12)C1Cc2ccc(C#CCCCCCCCCC(=O)ON3C(=O)CCC3=O)cc2C1 (stereo not drawn) [compound 105]
Activity AC50 or IC50 (activator) (marked activator, AC50): Weak activator

CC(CNc1nc(-c2cccnc2)nc2ccccc12)Oc1ccccc1 (stereo not drawn) [compound 92]
IC50 [3]: 5010 nM

Nc1ccc(-c2nc(NC3Cc4ccccc4C3)c3ccccc3n2)cc1 [compound 142]
IC50 [3]: 7.1 nM

c1cncc(-c2nc(NCCCCCCCCCCNc3nc(-c4cccnc4)nc4ccccc34)c3ccccc3n2)c1 [compound 108]
IC50 [3]: 141 nM

CN(CCOc1ccccc1)c1nc(-c2cccs2)nc2ccccc12 [compound 125]
Activity AC50 or IC50: Inactive

c1cncc(-c2nc(NC34CC5CC(CC(C5)C3)C4)c3ccccc3n2)c1 [compound 79]
IC50 [1]: 1120 nM

CN(Cc1nc2ccccc2[nH]1)c1nc(-c2cccnc2)nc2ccccc12 [compound 15]
AC50 [4]: 8.91 µM

c1ccc(COCCNc2nc(-c3cccnc3)nc3ccccc23)cc1 [compound 140]
IC50 [3]: 11200 nM

CN(c1nc(-c2cccnc2)nc2ccccc12)C1CCCCCCC1 [compound 123]
Activity AC50 or IC50 (activator) (marked activator, AC50): Weak activator

c1cncc(-c2nc(N3CCCOCC3)c3ccccc3n2)c1 [compound 116]
Activity AC50 or IC50 (activator) (marked activator, AC50): Weak activator

CN(c1nc(-c2cccnc2)nc2ccccc12)[C@H]1CCc2ccccc2C1 [compound 84]
IC50 [1]: 500 nM

CN(CCOc1ccccc1)c1nc(-c2cccc(F)c2)nc2ccccc12 [compound 132]
Activity AC50 or IC50: Inactive

c1cncc(-c2nc(NC3CCCCCCC3)c3ccccc3n2)c1 [compound 76]
IC50 [1]: 28 nM

c1ccc(C2CCCN(c3nc(-c4cccnc4)nc4ccccc34)C2)cc1 (stereo not drawn) [compound 82]
IC50 or AC50 (act) (marked (act), activator, AC50): Weak (act)

c1cncc(-c2nc(N3CCNCC3)c3ccccc3n2)c1 [compound 23]
IC50 [1]: 35500 nM

c1ccc(CN2CCC(Nc3nc(-c4cccnc4)nc4ccccc34)CC2)cc1 [compound 44]
IC50 [1]: 31600 nM

CC1(C)CCC(Nc2nc(-c3cccnc3)nc3ccccc23)CC1 [compound 85]
IC50 [1]: 460 nM

COC(=O)CCCCCCCCC#Cc1ccc(OCCN(C)c2nc(-c3cccnc3)nc3ccccc23)cc1 [compound 109]
Activity AC50 or IC50 (activator) (marked activator, AC50): Weak activator

CN(CCOc1ccccc1)c1nc(-c2ccc(N)cc2)nc2ccccc12 [compound 144]
Activity AC50 or IC50 (inhibitor) (marked inhibitor): Weak inhibitor

CCCCCCCCNc1nc(-c2cccnc2)nc2ccccc12 [compound 95]
IC50 [3]: 2240 nM

CN(c1nc(-c2cccnc2)nc2ccccc12)C1CCc2ccccc2C1 (stereo not drawn) [compound 75]
IC50 [1]: 1580 nM

c1cncc(-c2nc(NCC3CCCCC3)c3ccccc3n2)c1 [compound 57]
IC50 [1]: 354 nM

c1ccc(CCNc2nc(-c3cccnc3)nc3ccccc23)nc1 [compound 69]
IC50 [1]: 1120 nM

c1cncc(-c2nc(NC3CC4CCC3C4)c3ccccc3n2)c1 (stereo not drawn) [compound 78]
IC50 [1]: 355 nM

CC(COc1ccccc1)Nc1nc(-c2cccnc2)nc2ccccc12 (stereo not drawn) [compound 97]
IC50 [3]: 2510 nM

c1cncc(-c2nc(NC3CCCCC3)c3ccccc3n2)c1 [compound 40]
IC50 [1]: 177 nM

NCCCCCC(=O)Nc1ccc(-c2nc(NC3Cc4ccccc4C3)c3ccccc3n2)cc1 [compound 147]
IC50 [5]: 7.5 nM

CC(C)(C)Nc1nc(-c2cccnc2)nc2ccccc12 [compound 54]
IC50 or AC50 (act) (marked (act), activator, AC50): Weak (act)

O=C(CCCC[C@@H]1SC[C@@H]2NC(=O)N[C@@H]21)NCCOCCOCCOCCOCCC(=O)NCCCCCC(=O)Nc1ccc(-c2nc(NC3Cc4ccccc4C3)c3ccccc3n2)cc1 [compound 156]
IC50 [5]: 1.95 nM

CC(C)(C)OC(=O)NCCCCCC(=O)Nc1ccc(-c2nc(NC3Cc4ccccc4C3)c3ccccc3n2)cc1 [compound 145]
IC50 [5]: 5.6 nM

CC1CCC(Nc2nc(-c3cccnc3)nc3ccccc23)CC1 (stereo not drawn) [compound 77]
IC50 [1]: 20 nM

c1ccc(OCCCNc2nc(-c3cccnc3)nc3ccccc23)cc1 [compound 91]
IC50 [3]: 2820 nM

NCCC#Cc1ccc2c(c1)CC(Nc1nc(-c3cccnc3)nc3ccccc13)C2 (stereo not drawn) [compound 99]
IC50 [3]: 891 nM

Oc1ccc2c(c1)C[C@@H](Nc1nc(-c3cccnc3)nc3ccccc13)CC2 [compound 98]
IC50 [3]: 79 nM

CN1CCC(Nc2nc(-c3cccnc3)nc3ccccc23)CC1 [compound 45]
IC50 or AC50 (inh) (marked (inh), inhibitor): Weak (inh)

CN(CCOc1ccccc1)c1nc(-c2ccccc2)nc2ccccc12 [compound 131]
Activity AC50 or IC50: Inactive

c1ccc(CCCNc2nc(-c3cccnc3)nc3ccccc23)cc1 [compound 52]
IC50 [1]: 1780 nM

CN(CCOCc1ccccc1)c1nc(-c2cccnc2)nc2ccccc12 [compound 141]
IC50 [3]: 11200 nM

CN(c1nc(-c2cccnc2)nc2ccccc12)C1Cc2ccccc2C1 [compound 2]
IC50 [1]: 2150 nM

c1cncc(-c2nc(NC3CCCCCC3)c3ccccc3n2)c1 [compound 58]
IC50 [1]: 63 nM

c1cncc(-c2nc(NC3CCc4ccccc43)c3ccccc3n2)c1 (stereo not drawn) [compound 67]
IC50 [1]: 891 nM

c1cncc(-c2nc(NCCC3CCCCC3)c3ccccc3n2)c1 [compound 63]
IC50 [1]: 282 nM

c1cncc(-c2nc(NC3Cc4ccccc4C3)c3ccccc3n2)c1 [compound 1]
IC50 [1]: 7 nM

CC1CCCCC1Nc1nc(-c2cccnc2)nc2ccccc12 (stereo not drawn) [compound 48]
IC50 [1]: 89 nM

c1ccc(CCCCNc2nc(-c3cccnc3)nc3ccccc23)cc1 [compound 53]
IC50 [1]: 1580 nM

c1cncc(-c2nc(N3CCc4c([nH]c5ccccc45)C3)c3ccccc3n2)c1 [compound 94]
AC50 [2]: 2.82 µM

CN(c1nc(-c2cccnc2)nc2ccccc12)[C@@H]1CCc2ccccc2C1 [compound 88]
IC50 or AC50 (inh) (marked (inh), inhibitor): Weak (inh)

CN(CCOc1ccccc1)c1nc(-c2ccc(F)cc2)nc2ccccc12 [compound 129]
Activity AC50 or IC50: Inactive

c1cncc(-c2nc(NCCc3c[nH]c4ccccc34)c3ccccc3n2)c1 [compound 72]
AC50 [4]: 1.28 µM

c1ccc(Nc2nc(-c3cccnc3)nc3ccccc23)cc1 [compound 50]
IC50 or AC50 (act) (marked (act), activator, AC50): Weak (act)

CN1CCN(c2ccc(C(=O)N3CCN(c4nc(-c5cccnc5)nc5ccccc45)CC3)cc2)CC1 [compound 38]
IC50 or AC50 (act) (marked (act), activator, AC50): Weak (act)

CC1CCCC(Nc2nc(-c3cccnc3)nc3ccccc23)C1 (stereo not drawn) [compound 86]
IC50 [1]: 79 nM

c1cncc(CCNc2nc(-c3cccnc3)nc3ccccc23)c1 [compound 70]
IC50 [1]: 5010 nM

Fc1cccc(CCNc2nc(-c3cccnc3)nc3ccccc23)c1 [compound 55]
IC50 [1]: 141 nM

c1ccc(CCNc2nc(-c3cccnc3)nc3ccccc23)cc1 [compound 60]
IC50 [1]: 112 nM

c1ccc(CNc2nc(-c3cccnc3)nc3ccccc23)cc1 [compound 51]
IC50 [1]: 7080 nM

Nc1nc(-c2cccnc2)nc2ccccc12 [compound 35]
IC50 or AC50 (act) (marked (act), activator, AC50): Weak (act)

c1cncc(-c2nc(NC3CCCC3)c3ccccc3n2)c1 [compound 39]
IC50 [1]: 790 nM

CN(CCOc1ccc(C#CCCCCCCCCC(=O)ON2C(=O)CCC2=O)cc1)c1nc(-c2cccnc2)nc2ccccc12 [compound 153]
Activity AC50 or IC50 (activator) (marked activator, AC50): activator

c1cncc(-c2nc(N3CCc4[nH]c5ccccc5c4C3)c3ccccc3n2)c1 [compound 93]
AC50 [2]: 6.31 µM

c1cncc(-c2nc(NC3CC3)c3ccccc3n2)c1 [compound 42]
IC50 [1]: 39800 nM

c1cncc(-c2nc(NCC3COc4ccccc4O3)c3ccccc3n2)c1 (stereo not drawn) [compound 20]
IC50 [1]: 7940 nM

CC(C)(C)OC(=O)NCCC#Cc1ccc2c(c1)CC(Nc1nc(-c3cccnc3)nc3ccccc13)C2 (stereo not drawn) [compound 96]
IC50 [3]: 560 nM

CN(CCOc1ccc(C#CCOCCOCCNc2nc(-c3cccnc3)nc3ccccc23)cc1)c1nc(-c2cccnc2)nc2ccccc12 [compound 110]
Activity AC50 or IC50 (activator) (marked activator, AC50): Weak activator

c1cncc(-c2nc(NC3CCCc4ccccc43)c3ccccc3n2)c1 (stereo not drawn) [compound 68]
IC50 [1]: 1120 nM

CN(CCOc1ccccc1)c1nc(-c2ccsc2)nc2ccccc12 [compound 126]
Activity AC50 or IC50: Inactive

CC(C)N1CCC(Nc2nc(-c3cccnc3)nc3ccccc23)CC1 [compound 41]
IC50 [1]: 35500 nM

CN(CCCCCCCCCCN(C)c1nc(-c2cccnc2)nc2ccccc12)c1nc(-c2cccnc2)nc2ccccc12 [compound 112]
Activity AC50 or IC50 (activator): Weak activator

CC(C)(C)OC(=O)NCCOCCOCC(=O)Nc1ccc(-c2nc(NC3Cc4ccccc4C3)c3ccccc3n2)cc1 [compound 146]
IC50 [5]: 39.8 nM
